Experiment [1] has as its target T1, human VDR (Homo sapiens, UniProt P11473).
T1 construct: expressed in transfected cells; host or cells: HOS cells (ATCC), human osteoblast line; pcDNA3 expression vector
T1 sequence (P11473 1-427): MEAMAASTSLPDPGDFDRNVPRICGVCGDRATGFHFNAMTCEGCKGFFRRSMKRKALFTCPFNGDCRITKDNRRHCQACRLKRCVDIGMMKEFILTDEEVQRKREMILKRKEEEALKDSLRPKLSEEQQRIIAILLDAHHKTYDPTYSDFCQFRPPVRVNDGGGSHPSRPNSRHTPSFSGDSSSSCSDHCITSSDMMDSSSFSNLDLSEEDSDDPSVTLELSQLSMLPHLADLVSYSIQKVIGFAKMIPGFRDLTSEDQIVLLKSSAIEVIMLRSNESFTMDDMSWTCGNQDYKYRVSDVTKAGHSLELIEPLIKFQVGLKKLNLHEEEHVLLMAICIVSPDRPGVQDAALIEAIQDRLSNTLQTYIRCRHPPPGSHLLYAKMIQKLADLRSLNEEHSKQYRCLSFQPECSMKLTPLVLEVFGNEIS
T1 sequence (P19793 1-462 partner): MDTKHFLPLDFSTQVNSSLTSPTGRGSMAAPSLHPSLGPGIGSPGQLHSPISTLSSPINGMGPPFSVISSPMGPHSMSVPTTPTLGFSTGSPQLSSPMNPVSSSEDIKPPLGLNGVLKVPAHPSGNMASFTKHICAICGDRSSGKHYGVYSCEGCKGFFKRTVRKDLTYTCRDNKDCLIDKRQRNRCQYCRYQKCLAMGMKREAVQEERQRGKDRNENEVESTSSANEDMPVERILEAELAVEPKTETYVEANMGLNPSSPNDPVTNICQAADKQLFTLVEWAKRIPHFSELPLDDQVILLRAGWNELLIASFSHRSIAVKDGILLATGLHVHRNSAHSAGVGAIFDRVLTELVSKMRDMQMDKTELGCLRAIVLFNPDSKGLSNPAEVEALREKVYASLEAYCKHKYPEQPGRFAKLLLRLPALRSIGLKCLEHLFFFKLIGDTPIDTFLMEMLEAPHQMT
Nature of the experiment: Evaluation of VDR transcription activity in human osteoblasts (HOS cells), luciferase reporter. The class given is cell-based. To be noted: read-out: Activity (EC50 of VDR transcriptional activity).
Experimental: (1) A reporter vector was constructed using pGL4.26 vector (Promega Corporation) and incorporating a sequence of DR3 (×4) gene promoter portion upstream of the luciferase gene. An expression vector was constructed by inserting a DNA sequence encoding human VDR and human RXRα into pcDNA3 vector (Thermo Fisher Scientific, Inc.). Human RenillaLuc-CMV vector (Promega Corporation) was used for the correction of gene transfer efficiency. HOS cells (ATCC) were cultured in DMEM medium containing 10% FBS under the condition of 37° C. and 5% CO2, and passaged every 2 or 3 days. (2) The passaged cells were collected by centrifugation and dispersed in phenol red free DMEM medium containing deactivated and 5% charcoal-treated fetal bovine serum (CSS) at a density of 4×10^5 cells/mL, and then the various vectors described in (1) were introduced using Lipofectamine LTX (Thermo Fisher Scientific, Inc.) reagent at a ratio of 0.25 mL per 1 mL of the cell solution. […] (3) After the incubation for 21 hours under the condition of 37° C. and 5% CO2, the luciferase activity was measured by multi-label counter EnVision (PerkinElmer, Inc.) using Dual-Glo Luciferase Assay kit (Promega Corporation). At the same time, the activity of Renilla luciferase was measured and used to correct the gene transfer efficiency.

Experiment [2] concerns rat oligodendrocyte progenitor cells. Put plainly: Promotive activity of rat oligodendrocyte progenitor cell differentiation-2 (immunostaining of MBP). The class given is cell-based. As to conditions: Test 2; vitamin D derivative 2 μM, T3 30 nM, 4 days; DMSO 0.07. The method, then: The promotive activity of oligodendrocyte progenitor cell (OPC) differentiation of the vitamin D derivatives was evaluated by immunostaining of MBP.
Subsequently, oligodendrocyte progenitor cell separation medium was added to the flask, and the mixture was similarly shaken for about 22 hours (37° C., 200 rpm), and the supernatant was collected to prepare oligodendrocyte progenitor cells.

Here are results for 2 compounds from patent US20250195488A1, “MEDICINE CONTAINING VITAMIN D DERIVATIVE OR PHARMACEUTICALLY ACCEPTABLE SALT OR SOLVATE THEREOF, USED IN COMBINATION WITH IMMUNOMODULATORY SUBSTANCE” (TEEJIN PHARMA LIMITED, priority 2022, published 2025).

Molecules are shown by their SMILES.

What is called EC50 is the concentration at which the effect is half-maximal.

With `C[C@H](CN1CC[C@@H](F)C1)[C@H]1CC[C@H]2/C(=C/C=C3C[C@@H](O)C[C@H](O)C3)CCC[C@]12C` [Compound B013, (1R,3R)-5-(2-((1R,3aS,7aR,E)-1-((S)-1-((R)-3-fluoropyrrolidin-1-yl)propan-2-yl)-7a-methyloctahydro-4H-inden-4-ylidene)ethylidene)cyclohexane-1,3-diol], in experiment [1], the EC50 lay in the range of 100 to 1000 nM.

`C[C@H](CN1CC[C@@H](CC(F)F)C1)[C@H]1CC[C@H]2/C(=C/C=C3C[C@@H](O)C[C@H](O)C3)CCC[C@]12C` [Compound B043, (1R,3R)-5-(2-((1R,3aS,7aR,E)-1-((S)-1-((S)-3-(2,2-difluoroethyl)pyrrolidin-1-yl)propan-2-yl)-7a-methyloctahydro-4H-inden-4-ylidene)ethylidene)cyclohexane-1,3-diol]: the “mean (number of MBP-positive cells/number of Hoechst33342-positive cells)” value in experiment [2] was found to be 0.53.
